According to patent EP0091528A1, “-N-(1-propyl-2-pyrrolidylmethyl)-2-methoxy-5-sulfamoyl benzamide and its use against some sorts of depression” (priority 1982, dated 1983):
“And” between values parts separate entries of the source, which are not always exact repeats. Equal values may be shown once. Read-outs that look alike come from different tables or passages of the source.

Tests used:
[1] = Double-blind comparative clinical trial versus imipramine in depression; type: in vivo, humaine; details: for tolérance tant clinique que biologique: 450 mg par jour (compound), 150 mg par jour (IMIPRAMINE)
Protocol: En conséquence, un essai clinique comparatif en double aveugle a été mené mettant en oeuvre le composé selon l'invention et l'IMIPRAMINE, produit de référence indiscutable dans le traitement de certains états dépressifs.
Les posologies retenues ont été fixées : • . pour l'IMIPRAMINE en fonction des données acquises et de la posologie préconisée par le fabricant, c'est-à-dire : 150 mg par jour, dose atteinte progressivement en 5 jours; • . pour le composé selon l'invention, à partir des données recueillies par les études antérieures, c'est-à-dire : 450 mg par jour. Bien que cette posologie puisse, du fait de l'excellente tolérance du produit, être administrée d'emblée, pour se plier aux règles du double-aveugle et respecter le mode d'administration optimum pour l'IMIPRAMINE, cette dose n'a également été atteinte que le Sème jour après deux paliers successifs de : 150 et 300 mg par jour. Toutefois d'autres études permettent de penser que des doses plus faibles du composé selon l'invention aboutissent à des résultats similaires.
Ces doses ont été administrées pendant 28 jours consécutifs en mono- thérapie, dans toute la mesure du possible.
Pouvaient entrer dans l'étude, les sujets présentant une dépression authentique c'est-à-dire atteignant le score de 36 à la version simplifiée à 17 items de l'échelle de Hamilton.
La comparaison entre les deux produits a porté sur l'efficacité thérapeutique et sur la tolérance, 34 cas ayant été analysés. Pour établir cette comparaison, le protocole prévoyait trois bilans : • . avant le début du traitement (JO) • . au 10ème jour (J10) • . au 28ème jour (J28)
Chacun de ces bilans comportait obligatoirement : • . une B.P.R.S. • une échelle de Hamilton (26 items) • une appréciation par l'expert de 1"'intensité du syndrome dépressif" • une recherche des troubles somatiques associés à l'état dépressif.
De plus, à JO et à J28, il a été pratiqué une auto-appréciation de son état par le malade (S.D.S.) et un bilan biologique standard.
Enfin, en fin de traitement, il a été convenu d'exprimer une impression subjective globale sur l'intérêt du traitement pour chaque observation.

[2] = Acute toxicity, LD50 in mice by different routes; type: in vivo; details: souris; for LD50: mouse, in vivo, read-out: DL 50 (the source's name)
Excerpt: Au plan toxicologique, la détermination des DL 50 des deux produits administrés chez la souris par différentes voies ne révèle aucune différence majeure, le Sulpiride étant toutefois un peu moins toxique par voie buccale.

[3] = test system: récepteurs dopamine du centre du vomissement; test: Antiemetic power in the dog (apomorphine-induced emesis); type: in vivo; details: vomiting induced by apomorphine
Excerpt: D'une façon générale, ces dérivés benzamides interfèrent dans les mécanismes dopaminergiques du système nerveux. Leurs effets bloquants sur les récepteurs dopamine centraux leur confèrent des propriétés neuroleptiques. Leur effet bloquant sur les récepteurs dopamine du centre du vomissement se traduit par un puissant antagonisme à l'égard de l'effet émétisant de certains agonistes dopaminergiques, tels que l'apomorphine et les alcaloïdes de l'ergot de seigle.
Au plan pharmacologique, les interférences des deux composés dans le système dopamine ont été comparées par différents tests adaptés à la mise en évidence des effets antagonistes et agonistes. Il en résulte que : • 1) - le composé selon l'invention et le Sulpiride sont de très puissants antagonistes dans le test de l'emesis chez le chien où les vomissements sont provoqués par l'agoniste apomorphine.
Les valeurs des DE 50 montrent que les activités des deux composés sont équivalentes.

[4] = test system: récepteurs dopamine centraux; test: Inhibition of apomorphine-induced rearing (climbing) movement in mice; type: in vivo; details: souris, I.P., apomorphine 1 mg/kg S.C.
Protocol: 2) - Les deux composés ne se distinguent pas non plus quand leur propriété antagoniste dopaminergique centrale est jugée par exemple d'après l'inhibition qu'ils provoquent du mouvement de redressement induit chez la souris par l'apomorphine (1 mg/kg S.C.).
Les doses inhibitrices 50 de ce mouvement sont voisines pour les deux composés, respectivement : […]

[5] = test system: stéréotypies induites chez le Rat par l'apomorphine (agoniste direct); test: Potentiation of apomorphine-induced stereotypies in the rat; type: in vivo; details: for DE50 vis-à-vis de l'apomorphine: Bliss method, two trials not named
Protocol: (§1) A cet effet, le composé de l'invention a été étudié vis-à-vis de la potentialisation des stéréotypies induites chez le Rat par deux agonistes dopaminergiques, l'apomorphine (agoniste direct) et la d-amphétamine (agoniste indirect).
(§2) Dans les deux essais, la dose d'agoniste est choisie telle qu'elle n'entraîne pas, chez tous les animaux d'expérience, l'apparition de mouvements stéréotypés de la sphère buccale de type léchage ou mâchonnement (Apomorphine : 0,250 mg.kg^-1 S.C. - d-amphétamine : 3 mg.kg^-1 I.P.).
(§3) L'observation de ce comportement stéréotypé chez un plus grand nombre d'animaux consécutif à l'administration de doses croissantes du composé de l'invention, injectées par voie I.P. 30 minutes avant l'agoniste, traduit un renforcement dopaminergique.
(§4) Les DE50 déterminées par la méthode de Bliss assortie des limites de confiance à 95% sont de 10,8 et 8,9 mg.kg.^-1 I.P. vis-à-vis de l'apomorphine et 1,4 et 2,6 mg.kg^-1 vis-à-vis de la d-amphétamine.

[6] = test system: stéréotypies induites chez le Rat par la d-amphétamine (agoniste indirect); test: Potentiation of d-amphetamine-induced stereotypies in the rat; type: in vivo; details: for DE50 vis-à-vis de la d-amphétamine: Bliss method, two trials not named
Protocol: as §1, §2, §3, §4

[7] = Essai I, 4 mg.kg^-1 I.P. 30 min before Apomorphine 0,250 mg.kg^-1 S.C.
[8] = Essai I, 8 mg.kg^-1 I.P. 30 min before Apomorphine 0,250 mg.kg^-1 S.C.
[9] = Essai I, 16 mg.kg^-1 I.P. 30 min before Apomorphine 0,250 mg.kg^-1 S.C.
[10] = Essai I, 2 mg.kg^-1 I.P. 30 min before d-Amphétamine 3 mg.kg^-1 I.P.
[11] = Essai I, 4 mg.kg^-1 I.P. 30 min before d-Amphétamine 3 mg.kg^-1 I.P.
[12] = Essai I, 8 mg.kg^-1 I.P. 30 min before d-Amphétamine 3 mg.kg^-1 I.P.
[13] = Essai II, 4 mg.kg^-1 I.P. 30 min before Apomorphine 0,250 mg.kg^-1 S.C.
[14] = Essai II, 8 mg.kg^-1 I.P. 30 min before Apomorphine 0,250 mg.kg^-1 S.C.
[15] = Essai II, 16 mg.kg^-1 I.P. 30 min before Apomorphine 0,250 mg.kg^-1 S.C.
[16] = Essai II, 1 mg.kg^-1 I.P. 30 min before d-Amphétamine 3 mg.kg^-1 I.P.
[17] = Essai II, 4 mg.kg^-1 I.P. 30 min before d-Amphétamine 3 mg.kg^-1 I.P.
[18] = Essai II, 16 mg.kg^-1 I.P. 30 min before d-Amphétamine 3 mg.kg^-1 I.P.

Compound	tolérance tant clinique que biologique ([1]; 28 days)	Pouvoir antiémétique chez le chien DE 50 S.C. [3]	doses inhibitrices 50 du mouvement de redressement [4]	% d'activité [5, 7]	Nombre d'animaux positifs/16 [5, 7]	% d'activité [5, 8]	Nombre d'animaux positifs/16 [5, 8]	% d'activité [5, 9]	Nombre d'animaux positifs/16 [5, 9]	% d'activité [6, 10]	Nombre d'animaux positifs/16 [6, 10]	% d'activité [6, 11]	Nombre d'animaux positifs/16 [6, 11]	% d'activité [6, 12]	Nombre d'animaux positifs/16 [6, 12]	further results
CN(C)CCCN1c2ccccc2CCc2ccccc21 [IMIPRAMINE, reference compound]	troubles de la série anticholinergique nettement plus importants et plus sévères															
CCN1CCCC1CNC(=O)c1cc(S(N)(=O)=O)ccc1OC (stereo not shown) [Sulpiride, N-(1-éthyl-2-pyrrolidinyl-méthyl)-2-méthoxy-5-sulfamoyl benzamide, reference compound]		3,5-4,8 γ/kg	22 mg/kg I.P.	15%	5	31%	7	15%	5	6%	1	13%	2	6%	1	LD50 ([2]; ip, I.P.): 210 mg/kg; LD50 ([2]; iv, I.V.): 43.5 to 44 mg/kg; LD50 ([2]; po, P.O.): 1800 to 2890 mg/kg; LD50 ([2]; sc, S.C.): 372 mg/kg; DE50 mg.kg^-1 I.P. base ([5]; Essai I, I.P., base, Apomorphine 0,250 mg.kg^-1 S.C., 95% confidence limits in brackets): inactif; DE50 vis-à-vis de l'apomorphine ([5]; I.P.): inactif; DE50 vis-à-vis de la d-amphétamine [6]: inactif; DE50 mg.kg^-1 I.P. base ([6]; Essai I, I.P., base, d-Amphétamine 3 mg.kg^-1 I.P., 95% confidence limits in brackets): inactif
N-(1-propyl-2-pyrrolidylméthyl)-2-méthoxy-5-sulfamoyl benzamide [Composé selon l'invention]	moindre fréquence de l'apparition ou de l'aggravation d'une symptomatologie somatique	4,1 γ/kg	32 mg/kg I.P.	23%	6	46%	9	69%	12	38%	6	69%	11	88%	14	DL 50 ([2]; I.P.): 181 to 203 mg/kg; DL 50 ([2]; I.V.): 51,7-52,6 mg/kg; DL 50 ([2]; P.O.): 1411 to 1423 mg/kg; DL 50 ([2]; S.C.): 337 to 363 mg/kg; % d'activité [5, 13]: 7%; Nombre d'animaux positifs/16 [5, 13]: 2; % d'activité [5, 14]: 33%; Nombre d'animaux positifs/16 [5, 14]: 6; % d'activité [5, 15]: 67%; Nombre d'animaux positifs/16 [5, 15]: 11; DE50 vis-à-vis de l'apomorphine ([5]; I.P., listed as composé de l'invention): 10,8 mg.kg^-1 and 8,9 mg.kg^-1; DE50 vis-à-vis de la d-amphétamine ([6]; listed as composé de l'invention): 1,4 mg.kg^-1 and 2,6 mg.kg^-1; % d'activité [6, 16]: 38%; Nombre d'animaux positifs/16 [6, 16]: 6; % d'activité [6, 17]: 81%; Nombre d'animaux positifs/16 [6, 17]: 13; % d'activité [6, 18]: 94%; Nombre d'animaux positifs/16 [6, 18]: 15; efficacité ([1]; compared with IMIPRAMINE 150 mg par jour, compound 450 mg par jour, 28 days): au moins égale à celle de l'IMIPRAMINE; rapidité d'action sur l'état dépressif ([1]; compared with IMIPRAMINE, J10 versus J28): agit plus rapidement sur l'état dépressif que l'IMIPRAMINE
